The supplement of paper PMC10307832

Tests used:
Assay in all cases: relative viability (nuclei count vs DMSO), 5 days (fraction); higher = more cells survive
[1] = compound: N[C@@H]1CCCN(c2c(/C=C3\SC(=O)NC3=O)cccc2-c2ccccc2)C1 [AZD1208] + COc1cccc2cc(-c3nc([C@H]4CC[C@H](C(=O)O)CC4)n4ncnc(N)c34)[nH]c12 [OSI-027] (partner 0.5 µM)
Outline: (§1)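 Relative viability was taken as the ratio of nuclei in treated wells to nuclei in vehicle wells. Lung cancer cell lines in 1536-well plates received compounds by pin tool one day after seeding, either one drug alone or a fixed anchor-drug dose plus five library-drug doses (not always all listed) in √10 steps. Nuclei were counted on 4× images after 5 days of treatment, and values are medians of duplicate plates.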

[2] = compound: N[C@@H]1CCCN(c2c(/C=C3\SC(=O)NC3=O)cccc2-c2ccccc2)C1 [AZD1208] + NC(=O)Nc1cc(-c2cccc(F)c2)sc1C(=O)N[C@H]1CCCNC1 [AZD7762] (partner 0.2 µM)
Outline: as §1

[3] = compound: CN1CCN(CC1)C2=CC(=C(C=C2)NC3=NC(=C(S3)C(=O)C4=C(C=CC=C4Cl)Cl)N)OC [XMD14-99] + CCNC(=O)c1noc(-c2cc(C(C)C)c(O)cc2O)c1-c1ccc(CN2CCOCC2)cc1 [Luminespib] (partner 0.01 µM)
Outline: as §1

[4] = compound: CN1CCN(CC1)C2=CC(=C(C=C2)NC3=NC(=C(S3)C(=O)C4=C(C=CC=C4Cl)Cl)N)OC [XMD14-99] + CS(=O)(=O)N1CCN(Cc2cc3nc(-c4cccc5[nH]ncc45)nc(N4CCOCC4)c3s2)CC1 [Pictilisib] (partner 1 µM)
Outline: as §1

| Cell Line | relative viability ([1]; first compound 0.08 µM) | relative viability ([1]; first compound 0.253 µM) | relative viability ([1]; first compound 0.8 µM) | relative viability ([1]; first compound 2.53 µM) | relative viability ([1]; first compound 8 µM) | relative viability ([2]; first compound 0.08 µM) | relative viability ([2]; first compound 0.253 µM) | relative viability ([2]; first compound 0.8 µM) | relative viability ([2]; first compound 2.53 µM) | relative viability ([2]; first compound 8 µM) | relative viability ([3]; first compound 0.08 µM) | relative viability ([3]; first compound 0.8 µM) | relative viability ([3]; first compound 2.53 µM) | relative viability ([3]; first compound 8 µM) | relative viability ([4]; first compound 0.08 µM) | relative viability ([4]; first compound 0.8 µM) | relative viability ([4]; first compound 2.53 µM) | relative viability ([4]; first compound 8 µM) |
| --- | --- | --- | --- | --- | --- | --- | --- | --- | --- | --- | --- | --- | --- | --- | --- | --- | --- | --- |
| LU99A | 0.295 | 0.29 | 0.291 | 0.264 | 0.238 | 0.371 | 0.385 | 0.41 | 0.435 | 0.365 | 0.288 | 0.252 | 0.247 | 0.219 | 0.257 | 0.304 | 0.267 | 0.262 |
| LXF-289 | 0.821 | 0.814 | 0.602 | 0.647 | 0.648 | 1.13 | 1.27 | 1.19 | 1.22 | 1.38 | 0.586 | 0.672 | 0.639 | 0.634 | 0.699 | 0.824 | 0.753 | 0.597 |
| NCI-H23 | 0.576 | 0.705 | 0.523 | 0.37 | 0.382 | 0.245 | 0.251 | 0.243 | 0.228 | 0.29 | 0.199 | 0.247 | 0.214 | 0.202 | 0.46 | 0.547 | 0.526 | 0.383 |
| NCI-H322M | 0.569 | 0.514 | 0.459 | 0.508 | 0.462 | 0.627 | 0.545 | – | 0.53 | 0.552 | 0.857 | 1.06 | 0.939 | 0.863 | 0.514 | 0.538 | 0.495 | 0.476 |
| NCI-H358 | 0.649 | 0.738 | 0.626 | 0.695 | 0.472 | 0.454 | 0.579 | 0.436 | 0.467 | 0.451 | 0.219 | 0.262 | 0.323 | 0.281 | 0.327 | 0.301 | 0.229 | 0.176 |
| NCI-H441 | 0.518 | 0.535 | 0.396 | 0.493 | 0.352 | 1.12 | 1.16 | 0.936 | 1.21 | 1.16 | 0.351 | 0.352 | 0.311 | 0.276 | 0.451 | 0.442 | 0.51 | 0.283 |
| NCI-H460 | 0.59 | 0.853 | 0.633 | 0.647 | 0.477 | 0.844 | 0.716 | 0.643 | 0.824 | 0.7 | 0.0305 | 0.037 | 0.0277 | 0.0243 | 0.335 | 0.378 | 0.345 | 0.254 |
| NCI-H596 | 0.666 | 0.817 | 0.62 | 0.56 | 0.359 | 1.17 | 1.07 | 1.01 | 1.01 | 0.666 | 1.05 | 1.11 | 0.917 | 0.983 | 0.399 | 0.413 | 0.35 | 0.396 |
| NCI-H647 | 0.665 | 0.885 | 0.508 | 0.515 | 0.47 | 0.638 | 0.547 | 0.466 | 0.378 | 0.497 | 0.322 | 0.233 | 0.23 | 0.0995 | 0.421 | 0.412 | 0.472 | 0.379 |
| NCI-H650 | 0.574 | 0.435 | 0.477 | 0.394 | 0.398 | 1.05 | 1.09 | 0.795 | 0.833 | 0.871 | 0.733 | 0.873 | 0.79 | 0.722 | 0.931 | 0.992 | 0.805 | 0.72 |
| NCI-H727 | 0.576 | 0.561 | 0.414 | 0.468 | 0.548 | 0.586 | 0.708 | 0.502 | 0.441 | 0.518 | 0.383 | 0.305 | 0.203 | 0.352 | 0.551 | 0.403 | 0.321 | 0.276 |
| NCI-H838 | 0.378 | 0.453 | 0.38 | 0.326 | 0.301 | 0.931 | 1.02 | 0.887 | 0.993 | 1.01 | 0.28 | 0.293 | 0.239 | 0.235 | 0.434 | 0.411 | 0.38 | 0.296 |
| NCI-H1355 | 0.389 | 0.31 | 0.315 | 0.285 | 0.273 | 0.75 | 0.836 | 0.686 | 0.732 | 0.628 | 0.843 | 0.799 | 0.67 | 0.617 | 0.483 | 0.439 | 0.378 | 0.327 |
| NCI-H1395 | 0.624 | 0.569 | 0.578 | 0.624 | 0.491 | 0.39 | 0.401 | 0.377 | 0.448 | 0.367 | 0.733 | 0.685 | 0.699 | 0.555 | 0.626 | 0.67 | 0.585 | 0.535 |
| NCI-H1437 | 0.821 | 1.07 | 0.837 | 0.774 | 0.764 | 1.18 | 1.13 | 1.06 | 1.09 | 1.05 | 1.12 | 0.992 | 0.949 | 0.862 | 0.392 | 0.416 | 0.34 | 0.214 |
| NCI-H1651 | 0.679 | 0.878 | 0.534 | 0.595 | 0.503 | 0.458 | 0.54 | – | 0.439 | 0.472 | 0.939 | 0.647 | 0.63 | 0.644 | 0.547 | 0.521 | 0.593 | 0.461 |
| NCI-H1666 | 0.779 | 0.829 | 0.682 | 0.826 | 0.775 | 0.953 | 0.888 | 0.762 | 0.856 | 0.937 | 1.05 | 0.936 | 0.949 | 0.88 | 0.449 | 0.448 | 0.403 | 0.343 |
| NCI-H1734 | 0.51 | 0.534 | 0.495 | 0.468 | 0.342 | 0.499 | 0.543 | 0.469 | 0.465 | 0.425 | 0.175 | 0.179 | 0.172 | 0.185 | 0.436 | 0.447 | 0.513 | 0.389 |
